The results in this text go back to patent US4122077A, “Somatostatin analogs” (American Home Products Corporation, priority 1977, dated 1978).

Molecules are shown by their SMILES. Several values for one entry are separate records, joined by “and”; a condition that tells them apart may be missing. Equal values may be shown once. Where a SMILES comes first, the peptide text is derived from it. Bridges are numbered along the chain shown (N, C = ends). [ ]: non-standard residue; d: D form.

One test deals with growth hormone (GH). The test can be described thus: Suppression of growth hormone (duration of activity after sc injection). It counts as in vivo, rats. How it is done:
A subcutaneous (sc) injection of peptide solubilized or suspended in physiological saline, is given to Charles River CD® nonfasted male rats. Matched saline control solution sc injected rats serve as control animals so that every experimental rat is paired with a control rat. The rats are kept in separate cages and 20 minutes before the end of the test time period they are given an intraperitoneal (i.p.) injection of Nembutal® at a dose of 50 mg/kg. Blood samples are obtained by cardiac puncture and the plasma separated for the radioimmunoassay of growth hormone (GH) concentration (ng/ml.). Time periods after injection of 2, 4, 5, and 6 hours are generally used to test the duration of the activity of the peptide to suppress circulating peripheral GH levels. Comparisons between control and experimental GH values at each time are evaluated by the Student "t" test and statistical significance (p) at the 0.05 level or lower is used as the index of activity.

Another test relates to growth hormone. In words: Suppression of growth hormone, glucagon and insulin (arginine-stimulated, nembutal rats): GH. It counts as in vivo. How it is done: (§1) Albino male rats are arranged in three groups (nine rats/group) and injected i.p. with nembutal at 50mg/kg. 15 minutes after the nembutal injection they are injected s.c. according to group with (a) test compound, typically 10-2000 μg/kg.; (b) SRIF 200 μg/kg.; or (c) physiological saline. 10 minutes later 0.5 ml. of arginine (300 mg/ml., pH 7.2) is injected into the heart. The rats are decapitated 5 minutes after receiving the arginine, and the blood is collected into Trasylol-EDTA. Appropriate aliquots are then assayed for growth hormone, glucagon and insulin. […] Comparisons between control and experimental values are statistically evaluated by the analysis of variants method and statistical significance (p) at 0.05 or lower is used as the index of activity.

The subject of the next test is insulin. In words: Suppression of growth hormone, glucagon and insulin (arginine-stimulated, nembutal rats): insulin. It counts as in vivo. The settings on record: arginine challenge. As to the method: as §1
The test system of a further test is glucagon. In words: Suppression of growth hormone, glucagon and insulin (arginine-stimulated, nembutal rats): glucagon. It counts as in vivo. The settings on record: arginine challenge. As to the method:
as §1

Where [1] appears, read: 100 μg/kg. s.c., arginine challenge (table 5).

For the molecule `C[C@@H](O)[C@@H]1NC(=O)[C@H](Cc2ccccc2)NC(=O)[C@H]([C@@H](C)O)NC(=O)[C@H](CCCCN)NC(=O)[C@@H](Cc2c[nH]c3ccccc23)NC(=O)[C@H](Cc2ccccc2)NC(=O)[C@H](Cc2ccccc2)NC(=O)[C@@H](Cc2c[nH]c3ccccc23)NC(=O)[C@@H](Cc2ccc(O)cc2)NC(=O)[C@@H](N)CSSC[C@@H](C(=O)O)NC(=O)[C@H](CO)NC1=O` [B, L-Cysteinyl-D-Tyrosyl-D-Tryptophyl-L-Phenylalanyl-L-Phenylalanyl-D-Tryptophyl-L-Lysyl-L-Threonyl-L-Phenylalanyl-L-Threonyl-L-Seryl-L-Cysteine Cyclic (1-12)-Disulfide] (H-C[dY][dW]FF[dW]KTFTSC-OH; disulfide 1-12), the “plasma growth hormone (GH) concentration, 2 Hr.” value with growth hormone (GH) (1 mg/kg. sc, nonfasted male rats, 2 Hr. after injection) turned out to be 111 ± 14 ng/mL. For the same molecule, the “plasma growth hormone (GH) concentration, 4 Hr.” value in the test on growth hormone (GH) (1 mg/kg. sc, nonfasted male rats, 4 Hr. after injection) came out at 67 ± 14 ng/mL. In addition, in the test with growth hormone (GH) (1 mg/kg. sc, nonfasted male rats, 5 Hr. after injection), the “plasma growth hormone (GH) concentration, 5 Hr.” value worked out at 151 ± 18 ng/mL. In addition, the “plasma growth hormone (GH) concentration, 2 Hr. (second column headed 2 Hr.)” value in the test on growth hormone (GH) (1 mg/kg. sc, nonfasted male rats, second 2 Hr. column of table 3) was 133 ± 34 ng/mL. Further, the GH amounted to 125 ± 26 ng/mL in the test with growth hormone (10 μg/kg. s.c., 15 minutes after dose, arginine challenge); 43 ± 7 ng/mL with growth hormone (100 μg/kg. s.c., 15 minutes after dose, arginine challenge); 38 ± 6 ng/mL in the test with growth hormone (500 μg/kg. s.c., 15 minutes after dose, arginine challenge). The Insulin is reported as 162 ± 13 μU/ml with insulin (10 μg/kg. s.c.); 170 ± 15 μU/ml in the test on insulin (100 μg/kg. s.c.); 239 ± 17 μU/ml in the test with insulin (200 μg/kg. s.c.); 153 ± 9 μU/ml in the test on insulin (300 μg/kg. s.c.); 116 ± 8 μU/ml in the test with insulin (500 μg/kg. s.c.). The Glucagon amounted to 36 ± 4 pg/mL with glucagon (10 μg/kg. s.c.); 5 ± 1 pg/mL in the test on glucagon (100 μg/kg. s.c.); 44 ± 9 pg/mL in the test with glucagon (200 μg/kg. s.c.); 38 ± 8 pg/mL in the test on glucagon (300 μg/kg. s.c.); 18 ± 4 pg/mL with glucagon (500 μg/kg. s.c.).
In the case of `C[C@@H](O)[C@@H]1NC(=O)[C@H](Cc2ccccc2)NC(=O)[C@H]([C@@H](C)O)NC(=O)[C@H](CCCCN)NC(=O)[C@@H](Cc2c[nH]c3ccccc23)NC(=O)[C@H](Cc2ccccc2)NC(=O)[C@H](Cc2ccccc2)NC(=O)[C@@H](Cc2c[nH]cn2)NC(=O)[C@@H](Cc2c[nH]cn2)NC(=O)[C@@H](N)CSSC[C@@H](C(=O)O)NC(=O)[C@H](CO)NC1=O` [E, L-Cysteinyl-D-Histidyl-D-Histidyl-L-Phenylalanyl-L-Phenylalanyl-D-Tryptophyl-L-Lysyl-L-Threonyl-L-Phenylalanyl-L-Threonyl-L-Seryl-L-Cysteine Cyclic (1-12)-Disulfide] (H-C[dH][dH]FF[dW]KTFTSC-OH; disulfide 1-12), in the test on growth hormone (GH) (1000 μg/kg. sc, rats), the “GH, 2 Hours” value came to 36 ± 16 ng/mL and the “GH, 4 Hours” value was determined as 45 ± 10 ng/mL. In the test with growth hormone (200 μg/kg. s.c., arginine challenge (table 5)), this molecule registered a GH of 34 ± 3. In the test with insulin (200 μg/kg. s.c.), this molecule returned an Insulin of 182 ± 18 μU/ml. The Glucagon with glucagon (200 μg/kg. s.c.) worked out at 29 ± 12 pg/mL.
As to `C[C@@H](O)[C@@H]1NC(=O)[C@H](CCCCN)NC(=O)[C@@H](Cc2c[nH]c3ccccc23)NC(=O)[C@H](Cc2ccccc2)NC(=O)[C@H](Cc2ccccc2)NC(=O)[C@@H](CCCNC(=N)N)NC(=O)[C@@H](Cc2ccc(O)cc2)NC(=O)[C@@H](N)CSSC[C@H](C(=O)O)NC(=O)[C@H](CO)NC(=O)[C@H]([C@@H](C)O)NC(=O)[C@H](Cc2ccccc2)NC1=O` [F, L-Cysteinyl-D-Tryrosyl-D-Arginyl-L-Phenylalanyl-L-Phenylalanyl-D-Tryptophyl-L-Lysyl-L-Threonyl-L-Phenylalanyl-L-Threonyl-L-Seryl-D-Cysteine Cyclic (1-12)-Disulfide] (H-C[dY][dR]FF[dW]KTFTS[dC]-OH; disulfide 1-12), in the test with growth hormone (GH) (1000 μg/kg. sc, rats), the “GH, 2 Hours” value stood at 113 ± 34 ng/mL and the “GH, 4 Hours” value was 99 ± 11 ng/mL. The molecule also had a GH in the test with growth hormone (setting [1]) of 11 ± 3. Also, in the test with insulin (100 μg/kg. s.c.), the Insulin was 103 ± 24 μU/ml. This molecule had a Glucagon with glucagon (100 μg/kg. s.c.) of 24 ± 5 pg/mL.
Regarding `C[C@@H](O)[C@@H]1NC(=O)[C@H](Cc2ccccc2)NC(=O)[C@H]([C@@H](C)O)NC(=O)[C@H](CCCCN)NC(=O)[C@@H](Cc2c[nH]c3ccccc23)NC(=O)[C@H](Cc2ccccc2)NC(=O)[C@H](Cc2ccccc2)NC(=O)[C@@H](Cc2c[nH]c3ccccc23)NC(=O)[C@@H](CCCNC(=N)N)NC(=O)[C@@H](N)CSSC[C@@H](C(=O)O)NC(=O)[C@H](CO)NC1=O` [D, L-Cysteinyl-D-Arginyl-D-Tryptophyl-L-Phenylalanyl-L-Phenylalanyl-D-Tryptophyl-L-Lysyl-L-Threonyl-L-Phenylalanyl-L-Threonyl-L-Seryl-L-Cysteine Cyclic (1-12)-Disulfide] (H-C[dR][dW]FF[dW]KTFTSC-OH; disulfide 1-12), in the test on growth hormone (GH) (1000 μg/kg. sc, rats), the “GH, 2 Hours” value was 28 ± 3 ng/mL and the “GH, 4 Hours” value came to 11 ± 2 ng/mL. In the test on growth hormone (setting [1]), the GH came to 21 ± 2. The Insulin in the test on insulin (100 μg/kg. s.c.) was found to be 35 ± 2 μU/ml. Also, in the test on glucagon (100 μg/kg. s.c.), the Glucagon came out at 53 ± 9 pg/mL.
With `C[C@@H](O)[C@@H]1NC(=O)[C@H](Cc2ccccc2)NC(=O)[C@H]([C@@H](C)O)NC(=O)[C@H](CCCCN)NC(=O)[C@@H](Cc2c[nH]c3ccccc23)NC(=O)[C@H](Cc2ccccc2)NC(=O)[C@H](Cc2ccccc2)NC(=O)[C@@H](CCC(=O)O)NC(=O)[C@@H](Cc2ccc(O)cc2)NC(=O)[C@@H](N)CSSC[C@@H](C(=O)O)NC(=O)[C@H](CO)NC1=O` [J, L-Cysteinyl-D-Tyrosyl-D-Glutamyl-L-Phenylalanyl-L-Phenylalanyl-D-Tryptophyl-L-Lysyl-L-Threonyl-L-Phenylalanyl-L-Threonyl-L-Seryl-L-Cysteine Cyclic (1-12)-Disulfide] (H-C[dY][dE]FF[dW]KTFTSC-OH; disulfide 1-12), in the test on growth hormone (GH) (1000 μg/kg. sc, rats), the “GH, 2 Hours” value stood at 311 ± 68 ng/mL and the “GH, 4 Hours” value is 179 ± 39 ng/mL. The same molecule came in with a GH in the test with growth hormone (setting [1]) of 128 ± 24. In addition, the Insulin in the test with insulin (100 μg/kg. s.c.) came out at 263 ± 28 μU/ml. The Glucagon with glucagon (100 μg/kg. s.c.) is 45 ± 4 pg/mL.
Take `C[C@@H](O)[C@@H]1NC(=O)[C@H](Cc2ccccc2)NC(=O)[C@H]([C@@H](C)O)NC(=O)[C@H](CCCCN)NC(=O)[C@@H](Cc2c[nH]c3ccccc23)NC(=O)[C@H](Cc2ccccc2)NC(=O)[C@H](Cc2ccccc2)NC(=O)[C@@H](Cc2ccc(O)cc2)NC(=O)[C@@H](Cc2c[nH]cn2)NC(=O)[C@@H](N)CSSC[C@@H](C(=O)O)NC(=O)[C@H](CO)NC1=O` [C, L-Cysteinyl-D-Histidyl-D-Tyrosyl-L-Phenylalanyl-L-Phenylalanyl-D-Tryptophyl-L-Lysyl-L-Threonyl-L-Phenylalanyl-L-Threonyl-L-Seryl-L-Cysteine Cyclic (1-12)-Disulfide] (H-C[dH][dY]FF[dW]KTFTSC-OH; disulfide 1-12): in the test on growth hormone (GH) (1000 μg/kg. sc, rats), the “GH, 2 Hours” value turned out to be 34 ± 1 ng/mL and the “GH, 4 Hours” value turned out to be 33 ± 2 ng/mL. Also, the “GH, 5 Hours” value with growth hormone (GH) (1000 μg/kg. sc, rats, 5 hours) is 51 ± 8 ng/mL. Besides, the “GH, 6 Hours” value in the test with growth hormone (GH) (1000 μg/kg. sc, rats, 6 hours) was 36 ± 3 ng/mL. Also, the “GH, 7 Hours” value in the test on growth hormone (GH) (1000 μg/kg. sc, rats, 7 hours) was 37 ± 5 ng/mL. Also, the “GH, 8 Hours” value with growth hormone (GH) (1000 μg/kg. sc, rats, 8 hours) is 37 ± 6 ng/mL. Besides, in the test with growth hormone (10 μg/kg. s.c., arginine challenge (table 5)), the GH worked out at 149 ± 23. In the test with insulin (10 μg/kg. s.c.), this molecule showed an Insulin of 252 ± 41 μU/ml. The Insulin in the test with insulin (200 μg/kg. s.c.) was 254 ± 31 μU/ml. and 273 ± 36 μU/ml. This molecule displayed a Glucagon with glucagon (10 μg/kg. s.c.) of 165 ± 13 pg/mL.
Consider `C[C@@H](O)[C@@H]1NC(=O)[C@H](CCCCN)NC(=O)[C@@H](Cc2c[nH]c3ccccc23)NC(=O)[C@H](Cc2ccccc2)NC(=O)[C@H](Cc2ccccc2)NC(=O)[C@@H](Cc2ccc(O)cc2)NC(=O)[C@@H](CCCNC(=N)N)NC(=O)[C@@H](N)CSSC[C@H](C(=O)O)NC(=O)[C@H](CO)NC(=O)[C@H]([C@@H](C)O)NC(=O)[C@H](Cc2ccccc2)NC1=O` [H, L-Cysteinyl-D-Arginyl-D-Tyrosyl-L-Phenylalanyl-L-Phenylalanyl-D-Tryptophyl-L-Lysyl-L-Threonyl-L-Phenylalanyl-L-Threonyl-L-Seryl-D-Cysteine Cyclic (1-12)-Disulfide] (H-C[dR][dY]FF[dW]KTFTS[dC]-OH; disulfide 1-12), for which, in the test on growth hormone (GH) (1000 μg/kg. sc, rats), the “GH, 2 Hours” value turned out to be 75 ± 4 ng/mL and the “GH, 4 Hours” value turned out to be 144 ± 21 ng/mL. This molecule also yielded a GH in the test with growth hormone (25 μg/kg. s.c., arginine challenge (table 5)) of 23 ± 4. Further, the Insulin in the test on insulin (25 μg/kg. s.c.) is given as 128 ± 11 μU/ml. In the test on glucagon (25 μg/kg. s.c.), this molecule returned a Glucagon of 56 ± 6 pg/mL.
